This note sets out measurements from ChEMBL document CHEMBL1201862, “PubChem BioAssay data set” (2004).

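How tested: cells in 96-well plates exposed to compound for 48 hours at five concentrations. GI50 is the concentration that inhibits growth by half.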 Active and inactive are the calls of the source. Rule as the data show it: active = GI50 up to about 1.1 µM and inactive = higher.

Some test systems named below: NCI-H226; HCT-15; HCC 2998; OVCAR-3; SK-MEL-5; A498; Malme-3M; NCI-H522; RPMI-8226; HCT-116; K562; COLO 205; CAKI-1; CCRF-CEM; U-251; RXF 393; UO-31; NCI/ADR-RES; PC-3; MDA-MB-435.
Common to all, as to test: NCI anticancer screen, dose series, 48 h

`CC(=O)Nc1ccccc1Sc1ccccc1`: the GI50 in the experiment on NCI-H226 is > 100 µM (inactive); with HCT-15, more than 100 µM; in the experiment with HCC 2998, > 100 µM (inactive); with OVCAR-3 it was 2.6 µM (inactive); with SK-MEL-5, > 100 µM (inactive); in the experiment with A498, > 100 µM (inactive). For the same molecule, the GI50 is > 100 µM (inactive) with Malme-3M; 36.6 µM (inactive) in the experiment on NCI-H522; > 100 µM (inactive) with RPMI-8226; > 100 µM (inactive) in the experiment on HCT-116; > 100 µM (inactive) in the experiment with K562; > 100 µM (inactive) with COLO 205. Also, the GI50 is 69.8 µM (inactive) in the experiment on CAKI-1; > 100 µM (inactive) with CCRF-CEM; > 100 µM (inactive) in the experiment on U-251; 74.5 µM (inactive) with RXF 393; 28.6 µM (inactive) in the experiment on UO-31.
On to `Cc1ccc(S(=O)(=O)NC(=O)NC2=NC(C)(C)N(c3ccc(Cl)c(Cl)c3)C(N)=N2)cc1`, for which the GI50 with NCI-H226 was 67.8 µM (inactive); in the experiment on HCT-15, 61.2 µM; in the experiment with HCC 2998, 15.9 µM (inactive); in the experiment on OVCAR-3, > 100 µM (inactive); in the experiment on SK-MEL-5 it was 18.3 µM (inactive); with A498 it was > 100 µM (inactive). In addition, the GI50 with Malme-3M is 4.01 µM (inactive); with NCI-H522 it was > 100 µM (inactive); with NCI/ADR-RES, > 100 µM (inactive); in the experiment with HCT-116 it was 3.72 µM (inactive); in the experiment with PC-3 it was 0.552 µM (active); in the experiment with K562, 1.94 µM (inactive). Further, the GI50 in the experiment with COLO 205 was 10.2 µM (inactive); in the experiment with CAKI-1, 49.5 µM (inactive); with CCRF-CEM, 4.74 µM (inactive); in the experiment on U-251, 5.68 µM (inactive); in the experiment with RXF 393, 66.7 µM (inactive); in the experiment on UO-31, > 100 µM (inactive).
As for `Cc1ccc(C(=O)C(C2=Nc3nnc(N)n3C2=O)C2=Nc3nnc(N)n3C2=O)cc1`, the GI50 in the experiment with NCI-H226 was > 100 µM (inactive); with HCT-15, more than 100 µM; in the experiment with HCC 2998, > 100 µM (inactive); with OVCAR-3, > 100 µM (inactive); in the experiment on SK-MEL-5, > 100 µM (inactive); with A498, > 100 µM (inactive). The GI50 in the experiment with Malme-3M, in the experiment with NCI-H522, with RPMI-8226, in the experiment with K562, in the experiment with COLO 205 and with CAKI-1 was > 100 µM (inactive) in each case. In addition, the GI50 with CCRF-CEM, in the experiment with RXF 393 and in the experiment with UO-31 was > 100 µM (inactive) throughout.
Take `CCc1cccc(C)c1NC(=O)C(=O)Cc1nc2ccccc2o1`: the GI50 was > 100 µM (inactive) with NCI-H226; more than 100 µM in the experiment on HCT-15; > 100 µM (inactive) in the experiment on HCC 2998; > 100 µM (inactive) in the experiment with OVCAR-3; > 100 µM (inactive) in the experiment with A498; > 100 µM (inactive) in the experiment with Malme-3M. The GI50 with NCI-H522, in the experiment on RPMI-8226, in the experiment with HCT-116, in the experiment on K562, in the experiment on COLO 205 and in the experiment on CAKI-1 was > 100 µM (inactive) throughout. For the same molecule, the GI50 with CCRF-CEM, in the experiment on U-251, in the experiment on RXF 393 and with UO-31 was > 100 µM (inactive) each time.
On to `O=C1C2C(C(=O)N1O)N(Cc1ccccc1)C(=O)N2Cc1ccccc1` (stereo not drawn), for which the GI50 in the experiment with NCI-H226 was > 100 µM (inactive); in the experiment on HCT-15 it was more than 100 µM; with HCC 2998 it was > 100 µM (inactive); in the experiment on OVCAR-3, > 100 µM (inactive); in the experiment on SK-MEL-5, > 100 µM (inactive); in the experiment on A498, > 100 µM (inactive). Further, the GI50 in the experiment with Malme-3M, in the experiment with NCI-H522, in the experiment on RPMI-8226, in the experiment on HCT-116, with K562 and with COLO 205 was > 100 µM (inactive) each time. Also, the GI50 in the experiment on CAKI-1, in the experiment on CCRF-CEM, with U-251, with RXF 393 and in the experiment on UO-31 was > 100 µM (inactive) each time.
As to `O=C1O[C@@H](c2ccccc2)C[C@H]1CN1CCOCC1`, the GI50 in the experiment with NCI-H226 is 43.6 µM (inactive); with HCT-15, more than 100 µM; with HCC 2998, > 100 µM (inactive); in the experiment with OVCAR-3 it was > 100 µM (inactive); with SK-MEL-5 it was > 100 µM (inactive); in the experiment with A498 it was > 100 µM (inactive). Moreover, the GI50 in the experiment on Malme-3M is > 100 µM (inactive); with NCI-H522, > 100 µM (inactive); in the experiment with RPMI-8226 it was 14.6 µM (inactive); with K562, 40.7 µM (inactive); with COLO 205, 97.5 µM (inactive); with CAKI-1, 20.4 µM (inactive). The GI50 is 33.7 µM (inactive) in the experiment on CCRF-CEM, > 100 µM (inactive) in the experiment on U-251, > 100 µM (inactive) in the experiment with RXF 393 and > 100 µM (inactive) with UO-31.
Regarding `CC(C)C(=O)Nc1nc2c(ncn2C2OC(CO)C(O)C2O)c(=O)[nH]1` (stereo not drawn), the GI50 in the experiment with NCI-H226 was > 100 µM (inactive); in the experiment on HCT-15, more than 100 µM; in the experiment with HCC 2998, > 100 µM (inactive); in the experiment with OVCAR-3, > 100 µM (inactive); with SK-MEL-5, > 100 µM (inactive); with A498 it was > 100 µM (inactive). Moreover, the GI50 with Malme-3M, in the experiment with NCI-H522, in the experiment with RPMI-8226, in the experiment on HCT-116, with K562 and in the experiment on COLO 205 was > 100 µM (inactive) in each case. The GI50 in the experiment with CAKI-1, with CCRF-CEM, in the experiment with U-251, in the experiment with RXF 393 and with UO-31 was > 100 µM (inactive) throughout.
As to `NC(=O)N1N=C2c3ccccc3OC[C@H]2[C@@H]1c1ccccc1`, the GI50 is 22.5 µM (inactive) with NCI-H226; 5.55 µM in the experiment on HCT-15; 10.7 µM (inactive) in the experiment with HCC 2998; 20.9 µM (inactive) in the experiment with OVCAR-3; 1.91 µM (inactive) in the experiment on SK-MEL-5; 16.4 µM (inactive) in the experiment on A498. The GI50 was 21.1 µM (inactive) in the experiment on Malme-3M; 3.3 µM (inactive) in the experiment on NCI-H522; 8.89 µM (inactive) in the experiment on RPMI-8226; 5.6 µM (inactive) in the experiment on HCT-116; 14.4 µM (inactive) in the experiment on K562; 18.2 µM (inactive) in the experiment on COLO 205. Also, the GI50 in the experiment on CAKI-1 is 35.6 µM (inactive); with CCRF-CEM, 13.4 µM (inactive); in the experiment on U-251, 5.14 µM (inactive); in the experiment with RXF 393, 2.72 µM (inactive); in the experiment with UO-31, 42.4 µM (inactive).
`CC1(C)C2CCC1(C)C(NC(=O)COCCOCC(N)=O)C2` (stereo not drawn): the GI50 in the experiment with NCI-H226 is > 100 µM (inactive); in the experiment on HCC 2998, 45 µM (inactive); with OVCAR-3, > 100 µM (inactive); in the experiment with SK-MEL-5, > 100 µM (inactive); in the experiment on A498, > 100 µM (inactive); with Malme-3M, > 100 µM (inactive). Moreover, the GI50 was > 100 µM (inactive) in the experiment on NCI-H522; > 100 µM (inactive) in the experiment with HCT-116; > 100 µM (inactive) in the experiment on PC-3; 32.1 µM (inactive) in the experiment with K562; > 100 µM (inactive) in the experiment with MDA-MB-435; 94.8 µM (inactive) in the experiment with COLO 205. For the same molecule, the GI50 is > 100 µM (inactive) in the experiment on CAKI-1; > 100 µM (inactive) in the experiment on CCRF-CEM; > 100 µM (inactive) with U-251; 63.7 µM (inactive) in the experiment with RXF 393; > 100 µM (inactive) with UO-31.
As for `O=[N+]([O-])c1ccc(-n2nnc(C3=NCCCN3)c2-c2ccc(Cl)cc2)cc1`, the GI50 in the experiment on NCI-H226 is > 100 µM (inactive); in the experiment on HCT-15, more than 100 µM; with HCC 2998 it was > 100 µM (inactive); in the experiment on OVCAR-3 it was > 100 µM (inactive); in the experiment on SK-MEL-5 it was 82.2 µM (inactive); with A498, > 100 µM (inactive). Further, the GI50 is > 100 µM (inactive) in the experiment with Malme-3M; > 100 µM (inactive) with NCI-H522; > 100 µM (inactive) in the experiment with RPMI-8226; 89.1 µM (inactive) in the experiment on HCT-116; 61.1 µM (inactive) in the experiment with K562; 30.5 µM (inactive) in the experiment on COLO 205. Besides, the GI50 is > 100 µM (inactive) in the experiment on CAKI-1; > 100 µM (inactive) in the experiment with CCRF-CEM; > 100 µM (inactive) in the experiment with U-251; 73.1 µM (inactive) with RXF 393; 42.3 µM (inactive) with UO-31.
Take `Cc1ccc(S(=O)(=O)NC(=O)NCC(N)=O)cc1`: the GI50 in the experiment on HCT-15 is more than 100 µM; in the experiment on SK-MEL-5 it was > 100 µM (inactive); in the experiment with Malme-3M, > 100 µM (inactive); with NCI-H522, > 100 µM (inactive); in the experiment with RPMI-8226 it was > 100 µM (inactive); with NCI/ADR-RES, > 100 µM (inactive). The GI50 in the experiment on HCT-116, with PC-3, with K562, with COLO 205, with CCRF-CEM and in the experiment with U-251 was > 100 µM (inactive) in each case. For the same molecule, the GI50 in the experiment on RXF 393 and with UO-31 was > 100 µM (inactive) throughout.
Regarding `Cn1c(=O)nc2n(-c3cccc(Br)c3)c3ccccc3nc-2c1=O`, the GI50 in the experiment on NCI-H226 is 8.38 µM (inactive); in the experiment with HCT-15 it was 4.06 µM; with HCC 2998 it was 2.59 µM (inactive); with OVCAR-3 it was 2.38 µM (inactive); in the experiment with SK-MEL-5, 1.75 µM (inactive); in the experiment on A498 it was 10.2 µM (inactive). In addition, the GI50 is 2.71 µM (inactive) in the experiment with Malme-3M; 6.62 µM (inactive) in the experiment with NCI-H522; 4.57 µM (inactive) in the experiment with RPMI-8226; 4.35 µM (inactive) with HCT-116; 5.16 µM (inactive) in the experiment with K562; 1.68 µM (inactive) with COLO 205. The GI50 is 12.3 µM (inactive) in the experiment with CAKI-1; 5.82 µM (inactive) with CCRF-CEM; 5.01 µM (inactive) in the experiment with U-251; 11.5 µM (inactive) in the experiment with RXF 393; 12.9 µM (inactive) in the experiment with UO-31.
